Assay results taken from ChEMBL document CHEMBL5620395, “Development and therapeutic potential of allosteric retinoic acid receptor-related orphan receptor γt (RORγt) inverse agonists for autoimmune diseases” (Eur J Med Chem, 2023).

molecular target: T1, Peroxisome proliferator-activated receptor gamma (Homo sapiens, UniProt P37231); assay: Inverse agonist activity at human his 6 tagged PPARgammaLBD incubated for 60 mins by TR-FRET assay; settings: not given
T1 sequence (P37231 whole entry): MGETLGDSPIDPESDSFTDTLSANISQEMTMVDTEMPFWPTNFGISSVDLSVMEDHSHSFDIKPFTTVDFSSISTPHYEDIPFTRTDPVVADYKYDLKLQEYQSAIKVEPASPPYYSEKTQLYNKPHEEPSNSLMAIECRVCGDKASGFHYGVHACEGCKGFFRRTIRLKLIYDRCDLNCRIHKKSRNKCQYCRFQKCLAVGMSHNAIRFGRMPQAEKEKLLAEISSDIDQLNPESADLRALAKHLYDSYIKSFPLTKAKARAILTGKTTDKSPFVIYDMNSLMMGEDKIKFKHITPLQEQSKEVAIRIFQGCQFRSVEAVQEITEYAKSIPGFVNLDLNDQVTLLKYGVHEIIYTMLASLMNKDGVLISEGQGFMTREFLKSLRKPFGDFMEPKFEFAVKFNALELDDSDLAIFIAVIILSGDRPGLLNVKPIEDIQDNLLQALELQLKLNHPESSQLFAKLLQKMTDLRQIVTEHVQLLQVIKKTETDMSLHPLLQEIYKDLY

Row | IC50 | Compound
1 | > 100 µM | C[C@H](CCC(=O)NCCOCCOCCOCCOCCOCCOCCOCCOCCOCCOCCOCCOCCOCCOCCOCCNC(=O)c1ccc2c(-c3ccc(C(=O)O)cc3)nn(C(=O)c3c(Cl)cccc3C(F)(F)F)c2c1)[C@H]1CC[C@H]2[C@@H]3CC=C4C[C@@H](O)CC[C@]4(C)[C@H]3CC[C@]12C

molecular target: T2, Nuclear receptor ROR-gamma (Homo sapiens, UniProt P51449); assay: Inhibition of RORgamma (unknown origin) incubated for 1 hr by TR-FRET method; settings: not given
T2 sequence (P51449 whole entry): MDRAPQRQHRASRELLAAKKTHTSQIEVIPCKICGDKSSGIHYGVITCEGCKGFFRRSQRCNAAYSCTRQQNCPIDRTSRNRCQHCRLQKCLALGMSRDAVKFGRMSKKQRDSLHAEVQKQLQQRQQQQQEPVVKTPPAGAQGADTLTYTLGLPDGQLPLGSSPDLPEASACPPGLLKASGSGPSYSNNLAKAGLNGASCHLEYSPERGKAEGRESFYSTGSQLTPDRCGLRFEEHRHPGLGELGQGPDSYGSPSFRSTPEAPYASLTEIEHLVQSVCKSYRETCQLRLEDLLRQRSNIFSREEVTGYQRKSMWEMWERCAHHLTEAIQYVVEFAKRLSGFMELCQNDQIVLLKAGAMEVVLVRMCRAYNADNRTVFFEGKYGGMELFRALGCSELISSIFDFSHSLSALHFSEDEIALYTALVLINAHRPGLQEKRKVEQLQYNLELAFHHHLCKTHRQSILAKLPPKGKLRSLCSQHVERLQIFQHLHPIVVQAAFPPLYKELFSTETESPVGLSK

Row | Compound | IC50
2 | Cc1cc2c(s1)c(-c1ccc(C(=O)O)c(F)c1)nn2C(=O)c1c(F)cccc1C(F)(F)F | < 50 nM
3 | CN(C)C(=O)c1cc2c(s1)c(-c1ccc(C(=O)O)cc1F)nn2C(=O)c1c(F)cccc1C(F)(F)F | < 50 nM
4 | Cc1cc2c(s1)c(-c1ccc(C(=O)O)cc1)nn2C(=O)c1c(Cl)cccc1C(F)(F)F | < 50 nM

Next, values leading:

Row | IC50 | Compound
5 | < 50 nM | Cc1cc2c(s1)c(-c1ccc(C(=O)O)cc1F)nn2C(=O)c1c(Cl)cccc1Cl
6 | < 50 nM | Cc1cc2c(s1)c(-c1ccc(C(=O)O)cc1F)nn2C(=O)c1c(Cl)cccc1C(F)(F)F
7 | < 50 nM | Cc1cc2c(s1)c(-c1ccc(C(=O)O)cc1)nn2C(=O)c1c(C)cccc1Cl
8 | < 50 nM | Cc1cc2c(s1)c(-c1ccc(C(=O)O)cc1F)nn2C(=O)c1c(F)cccc1C(F)(F)F
9 | < 50 nM | Cc1cc2c(s1)c(-c1ccc(C(=O)O)cc1)nn2C(=O)c1c(Cl)cccc1Br

tested on: not listed separately; assay: Inhibition of IL-17a mRNA level in […] at 10 uM incubated for 24 hrs by RT-PCR analysis; type: functional, cell-based; settings: el4

Row | IC50 | Compound
10 | 110 nM | C[C@H](CCC(=O)NCCOCCOCCOCCOCCOCCOCCOCCOCCOCCOCCOCCOCCOCCOCCOCCNC(=O)c1ccc2c(-c3ccc(C(=O)O)cc3)nn(C(=O)c3c(Cl)cccc3C(F)(F)F)c2c1)[C@H]1CC[C@H]2[C@@H]3CC=C4C[C@@H](O)CC[C@]4(C)[C@H]3CC[C@]12C
